Several values for one entry are separate records, joined by “and”; a condition that tells them apart may be missing. Equal values may be shown once. Read-outs that look alike come from different tables or passages of the source.
Key:
P. dumerilii embryos = assay: Developmental toxicity assay with P. dumerilii embryos, dilution factor of in-use concentration (EC50,DF), also after degradation in darkness; assay type: in vivo, Platynereis dumerilii
Excerpt: The DBP doses for 3-log E. coli reduction (pH 7.2) were set as the in-use concentrations, which were serially diluted and added to the P. dumerilii embryos at 12-h postfertilization. A dilution factor was defined as the ratio of the in-use concentration to the exposure concentration. Each exposure set contained a control sample (i.e., the embryos at 12-h postfertilization developed in seawater without the addition of DBPs). By 24-h postfertilization, normally developed embryos should have reached the first larval stage. An inverted stereomicroscope (×40 magnification) was used to observe the larvae. The normal development percentage was calculated as the ratio of normally developed embryos to total embryos. By plotting the curve of the normal development percentage versus the dilution factor, the EC50,DF value (i.e., the dilution factor corresponding to 50% of the normal development percentage of the control sample) was obtained using SigmaPlot 12. The developmental toxicity test was conducted in duplicate.

[1] = Degradation in seawater in darkness (pH 6.2, 7.2, 8.2); conditions: for Ln (C/C0): seawater pH 8.2, darkness; for half-life at 10 mg L−1: pretreated seawater in darkness
Procedure: To study the DBP degradation in seawater in darkness, a DBP was added at 10 mg L^−1 to 50 mL pretreated seawater (pH 8.2) in the quartz flasks. The flasks were wrapped with aluminum foil to simulate the dark condition. The samples were kept at 20 °C in darkness for 0‒120 h, during which the sample was adjusted to pH 6.2 and 7.2 or maintained at pH 8.2 by adding 4 mM phosphate buffer (pH 6.2, 7.2, and 8.2, respectively).
(§1) For the DBP samples with and without sunlight, aliquots were taken at a specific reaction time. The sample aliquots were analyzed using Agilent high-performance liquid chromatography (HPLC) equipped with a Poroshell 120 EC-C18 column (4.6 × 150 mm, 4 µm particle size, Agilent) and a UV detector. The mobile phase, consisting of water (pre-adjusted to pH 2 with phosphoric acid) and acetonitrile at 50/50 (v/v), was applied at a flow rate of 1.0 mL min^−1. PCMX, 2,4-dihalophenols and 5-halosalicylic acids were detected at the wavelength of 230 nm. 2,5-Dihalohydroquinones and 2,6-DCQ were detected at the wavelength of 280 nm. All the degradation experiments were conducted in duplicate.

S. aureus (ATCC 25923) = assay: Inactivation of S. aureus (contact time 5 min); assay type: cell-based, Staphylococcus aureus; conditions: Staphylococcus aureus, ATCC25923, 5 min, dose 300 mg L-1, pH 7.2, contact time 5 min
Procedure: The chemicals and reagents used are detailed in Supplementary Note 1. The bacteria E. coli (ATCC 25922) and S. aureus (ATCC 25923) were cultured aerobically in Luria-Bertani broth (Sigma-Aldrich) and Tryptone Soya broth (Oxoid), respectively, at 37 °C for 16 h. The fungus C. albicans (ATCC 14053) was aerobically cultured in Sabouraud Dextrose broth (Difco) at 37 °C for 24 h. The microorganism cells were harvested by centrifugation at 1200×g (10 min, 4 °C) and resuspended in phosphate-buffered saline (PBS, 10 mM, pH 7.2). The disinfection experiments were performed in PBS solutions (10 mM, pH 7.2) with an initial concentration of E. coli, S. aureus, or C. albicans of 10^6‒10^7 cells per milliliter. A contact time of 5 min was used in accordance with the recommended time range of 0.25–10 min by USEPA for surface disinfection. Preliminary tests were conducted to determine the appropriate range of DBP doses. The appropriate dose range was established when the lowest and highest doses could achieve <1-log and >3-log of microbial inactivation, respectively. Based on the preliminary results, a series of doses of DBPs were added to the cell suspensions at room temperature (22 ± 1 °C). After the contact time of 5 min, the microorganism cells were enumerated following a membrane filter method. Briefly, serial 10-fold dilutions were conducted for the disinfected samples and the control sample without disinfection. Each diluted suspension was subjected to filtration through 0.45-μm membrane, which was then placed on a petri dish. The Petri dishes containing E. coli, S. aureus, and C. albicans were incubated in m-FC medium (Becton Dickinson & Co) at 45 °C for 24 h, in Tryptone Soya broth at 37 °C for 24 h and in Sabouraud Dextrose broth at 37 °C for 24 h, respectively. After incubation, the colony-forming units within a statistically reasonable range (20–80) were counted.

physchem = conditions: for half-life at 10 mg L−1: pH 8.2; for Ln (C/C0): seawater pH 8.2, solar irradiation
Procedure: The solar photolysis experiments were conducted in a chamber equipped with eight simulated sunlight full-spectrum lamps (BlueMax 5900, Full Spectrum Solutions). The temperature in the chamber was maintained at 20 °C. The total intensity of simulated sunlight was determined using a digital photometer (DT-1010B, Shenzhen Golden Octopus, China). Quartz flasks were positioned in the chamber where the total intensity of simulated sunlight was 4.79 ± 0.04 mW cm^−2 for each quartz flask. […] A DBP was added at 10 mg L^−1 to 50 mL pretreated seawater (pH 8.2) in the quartz flasks and exposed to the simulated solar irradiation for 0‒96 h. Every 8 h, the quartz flasks were rotated in and out of the chamber, and the sample volume was determined and adjusted with ultrapure water to account for any water evaporation. During the solar irradiation experiments, the sample was adjusted to pH 6.2 and 7.2 or maintained at pH 8.2 by adding 4 mM phosphate buffer (pH 6.2, 7.2, and 8.2, respectively).
as §1

[2] = pH 7.2, S. aureus, read-out: Log (N/N0)
[3] = pH 6.2, degradation time 15 min
[4] = pH 6.2, degradation time 30 min
[5] = pH 6.2, degradation time 60 min
[6] = pH 6.2, degradation time 90 min
[7] = pH 6.2, degradation time 120 min
[8] = pH 6.2, degradation time 180 min
[9] = pH 6.2, degradation time 240 min
[10] = pH 7.2, degradation time 15 min
[11] = pH 7.2, degradation time 30 min
[12] = pH 7.2, degradation time 45 min
[13] = pH 7.2, degradation time 60 min
[14] = pH 7.2, degradation time 90 min
[15] = pH 7.2, degradation time 120 min
[16] = pH 7.2, degradation time 180 min
[17] = pH 8.2, degradation time 12 min
[18] = pH 8.2, degradation time 16 min
[19] = pH 8.2, degradation time 20 min
[20] = pH 8.2, degradation time 25 min
[21] = pretreated seawater under simulated solar irradiation

## Oc1ccc(Cl)cc1Cl [2,4-DCPh, 2,4-Dichlorophenol]
P. dumerilii embryos; dilution factor 9.6524
  Normal development (%): 0%
P. dumerilii embryos; dilution factor 13.1623
  Normal development (%): 7.691% and 7.509%
P. dumerilii embryos; dilution factor 16.0873
  Normal development (%): 35.5728% and 39.4272%
P. dumerilii embryos; dilution factor 20.6836
  Normal development (%): 55.5625% and 48.4375%
P. dumerilii embryos; dilution factor 28.9571
  Normal development (%): 80.2893% and 76.7107%
P. dumerilii embryos; dilution factor 57.9141
  Normal development (%): 81.6957% and 84.3043%
[1]; 0 h
  Ln (C/C0): 0
[1]; 24 h
  Ln (C/C0): 0.008094 and 0.006005
[1]; 48 h
  Ln (C/C0): 0.007156 and 0.006397
S. aureus (ATCC 25923); pH 7.2, read-out: Log (N/N0), S. aureus
  log reduction at 300 µg/mL: 0.626
physchem; buffer
  half-life at 10 mg L−1: 45 h
physchem; 0 h
  Ln (C/C0): 0

## Oc1ccc(I)cc1I [2,4-DIPh, 2,4-diiodophenol]
P. dumerilii embryos; dilution factor 14.7221
  Normal development (%): 3.475% and 5.221%
P. dumerilii embryos; dilution factor 16.1943
  Normal development (%): 15.5532% and 11.251%
P. dumerilii embryos; dilution factor 17.0467
  Normal development (%): 28.4871% and 30.5605%
P. dumerilii embryos; dilution factor 17.9937
  Normal development (%): 62.9083% and 58.6107%
P. dumerilii embryos; dilution factor 19.0522
  Normal development (%): 71.0249% and 62.3085%
P. dumerilii embryos; dilution factor 21.5924
  Normal development (%): 85.4546% and 82.7272%
[1]; 0 h
  Ln (C/C0): 0
[1]; 24 h
  Ln (C/C0): 0.00447 and 0.004669
[1]; 48 h
  Ln (C/C0): 0.01674 and 0.0143
S. aureus (ATCC 25923); [2]
  log reduction at 300 µg/mL: 4.49
physchem; buffer
  half-life at 10 mg L−1: 83 h
physchem; 0 h
  Ln (C/C0): 0

## Oc1cc(Br)c(O)cc1Br [2,5-DBHQ, 2,5-dibromohydroquinone]
P. dumerilii embryos; dilution factor 366.306
  Normal development (%): 0%
P. dumerilii embryos; dilution factor 439.567
  Normal development (%): 8.76% and 2.206%
P. dumerilii embryos; dilution factor 549.459
  Normal development (%): 13.3508% and 11.7022%
P. dumerilii embryos; dilution factor 732.612
  Normal development (%): 55.6452% and 53.271%
P. dumerilii embryos; dilution factor 1098.92
  Normal development (%): 74.7747% and 73.7705%
P. dumerilii embryos; dilution factor 2197.84
  Normal development (%): 91.7072% and 82.9908%
[1]; pH 6.2, degradation time 0 min
  Relative concentration remaining (1 at 0 min): 1
[1]; [3]
  Relative concentration remaining (1 at 0 min): 0.9903 and 1.013
[1]; [4]
  Relative concentration remaining (1 at 0 min): 1.0399 and 0.9876
[1]; [5]
  Relative concentration remaining (1 at 0 min): 1.018 and 0.9782
[1]; [6]
  Relative concentration remaining (1 at 0 min): 1.002 and 0.9911
[1]; [7]
  Relative concentration remaining (1 at 0 min): 0.974 and 0.967
[1]; [8]
  Relative concentration remaining (1 at 0 min): 0.9787 and 0.9462
[1]; [9]
  Relative concentration remaining (1 at 0 min): 0.9527 and 0.9358
[1]; pH 7.2, degradation time 0 min
  Relative concentration remaining (1 at 0 min): 1
[1]; [10]
  Relative concentration remaining (1 at 0 min): 1.006 and 0.9535
[1]; [11]
  Relative concentration remaining (1 at 0 min): 0.9742 and 0.9233
[1]; [12]
  Relative concentration remaining (1 at 0 min): 0.8634 and 0.8365
[1]; [13]
  Relative concentration remaining (1 at 0 min): 0.7743 and 0.7531
[1]; [14]
  Relative concentration remaining (1 at 0 min): 0.6443 and 0.5863
[1]; [15]
  Relative concentration remaining (1 at 0 min): 0.5356 and 0.4974
[1]; [16]
  Relative concentration remaining (1 at 0 min): 0.3959 and 0.345
[1]; pH 8.2, degradation time 0 min
  Relative concentration remaining (1 at 0 min): 1
[1]; pH 8.2, degradation time 3 min
  Relative concentration remaining (1 at 0 min): 0.7301 and 0.7188
[1]; pH 8.2, degradation time 8 min
  Relative concentration remaining (1 at 0 min): 0.5509 and 0.4986
[1]; [17]
  Relative concentration remaining (1 at 0 min): 0.3915 and 0.3688
[1]; [18]
  Relative concentration remaining (1 at 0 min): 0.2832 and 0.2676
[1]; [19]
  Relative concentration remaining (1 at 0 min): 0.2193 and 0.1797
[1]; [20]
  Relative concentration remaining (1 at 0 min): 0.1418 and 0.1248
[1]; pH 8.2
  half-life at 10 mg L−1: 9 min
[1]; 0 min
  Ln (C/C0): 0
S. aureus (ATCC 25923); [2]
  log reduction at 300 µg/mL: 0.62
physchem; [21]
  half-life at 10 mg L−1: 0.16 h
physchem; 0 min
  Ln (C/C0): 0

## Oc1cc(I)c(O)cc1I [2,5-DIHQ, 2,5-diiodohydroquinone]
P. dumerilii embryos; dilution factor 86.0274
  Normal development (%): 0.8729% and 0%
P. dumerilii embryos; dilution factor 103.233
  Normal development (%): 7.707% and 3.405%
P. dumerilii embryos; dilution factor 129.041
  Normal development (%): 16.1617% and 11.8279%
P. dumerilii embryos; dilution factor 172.055
  Normal development (%): 46.0177% and 46.8181%
P. dumerilii embryos; dilution factor 258.082
  Normal development (%): 63.2599% and 58.9623%
P. dumerilii embryos; dilution factor 516.165
  Normal development (%): 88.6525% and 83.3333%
[1]; pH 6.2, degradation time 0 min
  Relative concentration remaining (1 at 0 min): 1
[1]; [3]
  Relative concentration remaining (1 at 0 min): 1.009 and 0.9751
[1]; [4]
  Relative concentration remaining (1 at 0 min): 1.028 and 0.9729
[1]; [5]
  Relative concentration remaining (1 at 0 min): 1.02 and 0.9831
[1]; [6]
  Relative concentration remaining (1 at 0 min): 0.9778 and 1.02
[1]; [7]
  Relative concentration remaining (1 at 0 min): 1 and 0.9297
[1]; [8]
  Relative concentration remaining (1 at 0 min): 0.9306 and 0.9617
[1]; [9]
  Relative concentration remaining (1 at 0 min): 0.9273 and 0.981
[1]; pH 7.2, degradation time 0 min
  Relative concentration remaining (1 at 0 min): 1
[1]; [10]
  Relative concentration remaining (1 at 0 min): 1.0017 and 0.9494
[1]; [11]
  Relative concentration remaining (1 at 0 min): 1.002 and 0.9365
[1]; [12]
  Relative concentration remaining (1 at 0 min): 0.934 and 0.9212
[1]; [13]
  Relative concentration remaining (1 at 0 min): 0.9213 and 0.886
[1]; [14]
  Relative concentration remaining (1 at 0 min): 0.8145 and 0.7791
[1]; [15]
  Relative concentration remaining (1 at 0 min): 0.7145 and 0.6664
[1]; [16]
  Relative concentration remaining (1 at 0 min): 0.5609 and 0.5354
[1]; pH 8.2, degradation time 0 min
  Relative concentration remaining (1 at 0 min): 1
[1]; pH 8.2, degradation time 3 min
  Relative concentration remaining (1 at 0 min): 0.721 and 0.687
[1]; pH 8.2, degradation time 8 min
  Relative concentration remaining (1 at 0 min): 0.4796 and 0.4372
[1]; [17]
  Relative concentration remaining (1 at 0 min): 0.4155 and 0.3689
[1]; [18]
  Relative concentration remaining (1 at 0 min): 0.2998 and 0.2743
[1]; [19]
  Relative concentration remaining (1 at 0 min): 0.2215 and 0.1988
[1]; [20]
  Relative concentration remaining (1 at 0 min): 0.1592 and 0.1253
[1]; pH 8.2
  half-life at 10 mg L−1: 9.6 min
[1]; 0 min
  Ln (C/C0): 0
S. aureus (ATCC 25923); [2]
  log reduction at 300 µg/mL: 0.792
physchem; [21]
  half-life at 10 mg L−1: 0.16 h
physchem; 0 min
  Ln (C/C0): 0

Reference: article PMC11161644, “An effective and rapidly degradable disinfectant from disinfection byproducts” (Nature Communications, 2024)
